Measured values reported in patent US10548319B2, “Compositions and methods for synthetic amphiphile-induced changes in plant root morphology” (The Curators of the University of Missouri, priority 2014, dated 2020).
Where two headings read alike, the source gives them in different places. * marks the point of attachment. (CH3(CH2)17)2NCOCH2OCH2CO = CCCCCCCCCCCCCCCCCCN(CCCCCCCCCCCCCCCCCC)C(=O)COCC(=O)*; (C12H25)2NCOCH2CH2CO = CCCCCCCCCCCCN(CCCCCCCCCCCC)C(=O)CCC(=O)*; O(CH2)6CH3 = CCCCCCCO*; OC7H15 = CCCCCCCO*

Assays:
[1] = tested on: A. thaliana (Col-0) plant; format: in vivo, Arabidopsis thaliana; conditions: for Decrease in primary root length: vs PNS
Text: The effect treating a plant with a composition comprising a synthetic amphiphile on root morphology or other physical characteristics or attributes can be quantitated. For example, a change in primary root length can be determined by measuring the difference, if any, in primary root length of a plant treated with the composition compared to the average of a control sample of plants of the same type grown under identical conditions in the absence of the composition. A change in lateral root density can be determined by comparing the lateral root density of a plant treated with the composition to the average lateral root density of a sample grown under identical conditions in the absence of the composition. Lateral root density can be determined by dividing the number of lateral roots by the length of the primary root. In certain embodiments for any quantitated characteristic or attribute, the average value of the control is the average of a statistically significant population of control plants. For example, in certain illustrative embodiments disclosed herein, three trials of about 20 plants each were used to determine the average of the control.
Illustrative of certain embodiments, approximately 60 plants were grown on PNS media (no additives) and root lengths and the number of lateral roots were recorded for each. The data points were averaged to obtain the following baseline values: primary root length=40.4±3.8 mm and number of lateral roots=6.1±0.8, respectively. The lateral root density was obtained by dividing the number of lateral roots by the length (in mm) of the primary root. The control value was (6.1/[…]=) 0.15.
Test compounds were added to the growth medium as 0.2% by volume DMSO. […]
To make 500 mL PN media, 485 mL doubly distilled (“dd”) H2O was first added to an autoclave beaker. The following salts and nutrients were added to a beaker and mixed well: 5 mL of 250 mM of KPO4 (pH 5.5), 2.5 mL of 1M KNO3, 1 mL of 1M MgSO4, 1 mL of 1M Ca(NO3)2, 0.5 mL of Ferric EDTA (1000× or 49 mM) and 0.5 mL of Micronutrients (1000×). In a 1 L autoclaved bottle, 0.6% (3 g) of bacteriological agar was added, followed by 500 mL solution prepared above. The media was autoclaved using the Liquid-30 program.
PNS plates were used for plating sterile Arabidopsis thaliana (Columbia-0) seeds. A sterile stock of PNS agar was maintained. Sterile sucrose was added to PN media to make PNS media. To make PNS media containing 0.5% sucrose, 5 mL of 50% sucrose (sterile filtered) was added to 500 mL of PN agar and mixed well.
The stored PNS media was liquefied using a water bath and allowed to cool to 55° C. The type of plates, compounds, and concentrations to be used were confirmed while the media cooled. The plates were labeled on the cover and the bottom with all the relevant information. 50 mL sterile centrifuge tubes were used to measure 29,940 μL (29.94 mL) PNS media. A fresh sterile 50 mL tube was used for each plate. The desired amount and concentration of compound was added to the PNS media, mixed by inverting the tube and poured in the plate. Total volume of media and compound in each plate was kept constant at 30 mL. A maximum of 60 μL (0.2% by volume) compound was added per plate. For example: 60 μL of 25 mM compound was added to 29.94 mL PNS media to get final concentration of 50 μM compound in PNS media. Plates were incubated at room temperature for 2 hours before plating seeds on them.
Hands and bench area were washed thoroughly before beginning. Sterilizing solution was prepared in a sterile 15 mL centrifuge tube, by mixing 5 mL of 30% bleach and 5 μL of 10% Triton X-100. A. thaliana Col-0 seeds were added to sterile 1.5 mL micro-centrifuge tube. 500 μL of sterilizing solution (30% bleach+0.01% Triton X-100) was added to the seeds, vortexed for 3 seconds and incubated at room temperature for 8 minutes. After 8 minutes, bleach was removed and 1 mL autoclaved MilliQ water was added. […]

[2] = study of hydraphiles having various chain lengths; cited from earlier work

Compound: c1ccc(CN2CCOCCOCCN(CCCCCCCCN3CCOCCOCCN(CCCCCCCCN4CCOCCOCCN(Cc5ccccc5)CCOCCOCC4)CCOCCOCC3)CCOCCOCC2)cc1 [C8 hydraphile (1)]
- Primary root length ([1]; hydraphile 20 μM in PNS media): 34 ± 7 mm
- Primary root length ([1]; hydraphile 20 μM in PNS media, listed as C8 benzyl hydraphile (compound 1)): 34±7 mm
- Decrease in primary root length ([1]; hydraphile 20 μM): 9%
- Lateral root density ([1]; hydraphile 20 μM, lateral roots divided by primary root length): 0.15±0.01
- Primary root length ([1]; hydraphile 50 μM in PNS media): 31 ± 6 mm
- Primary root length ([1]; hydraphile 50 μM in PNS media, listed as C8 benzyl hydraphile (compound 1)): 31±6 mm
- Decrease in primary root length ([1]; hydraphile 50 μM): 19%
- Lateral root density ([1]; hydraphile 50 μM, lateral roots divided by primary root length): 0.18±0.03
- Sodium cation conduction [2]: did not conduct sodium cation efficiently

Compound: (C12H25)2NCOCH2CH2CO-GGGPSGS-OC7H15 ({(C12H25)2NCOCH2CH2CO}-GGGPSGS-OC7H15; SMILES CCCCCCCCCCCCN(CCCCCCCCCCCC)C(=O)CCC(=O)NCC(=O)NCC(=O)NCC(=O)N1CCC[C@H]1C(=O)N[C@@H](CO)C(=O)NCC(=O)N[C@@H](CO)C(=O)OCCCCCCC) [Compound 15]
- Effect on number of lateral roots relative to control ([1]; SAT 50 μM): does not show such a dramatic effect
- Effect on primary root length relative to control ([1]; SAT 50 μM): dramatic reduction in primary root length
- Overall effect on growth / root morphology relative to control ([1]; SAT 50 μM): shorter primary root and new lateral roots
- Lateral root density ([1]; SAT 50 μM in PNS): 0.51 ± 0.03
- Number of lateral roots ([1]; SAT 50 μM in PNS): 4.5 ± 0.4
- Primary root length ([1]; SAT 50 μM in PNS): 9.0 ± 1.2 mm

Compound: [CH3(CH2)17]2NCOCH2OCH2CO-Gly-Gly-Gly-Pro-Gly-Gly-Gly-O(CH2)6CH3 ({(CH3(CH2)17)2NCOCH2OCH2CO}-GGGPGGG-{O(CH2)6CH3}; SMILES CCCCCCCCCCCCCCCCCCN(CCCCCCCCCCCCCCCCCC)C(=O)COCC(=O)NCC(=O)NCC(=O)NCC(=O)N1CCC[C@H]1C(=O)NCC(=O)NCC(=O)NCC(=O)OCCCCCCC) [Compound 9]
- Effect on number of lateral roots relative to control ([1]; SAT 50 μM): within experimental error of the PNS control
- Effect on primary root length relative to control ([1]; SAT 50 μM): within experimental error of the PNS control
- Lateral root density ([1]; SAT 50 μM in PNS): 0.17 ± 0.02
- Number of lateral roots ([1]; SAT 50 μM in PNS): 6.8 ± 1.3
- Primary root length ([1]; SAT 50 μM in PNS): 40.5 ± 3.4 mm
